Laboratory results: US20180333491A1 (Sinotau Pharmaceuticals Group, priority 2015, published 2018)
Marks after values point to notes of the source that are not given here.

Legend:
[1] = target: T1, DR4 (Homo sapiens, UniProt O00220); assay: CLEIA binding specificity; conditions: DR4-His-EC coated; antibody 200, 40 and 8 ng/mL
T1 construct: His; Lot: 090222-P; host or cells: E. coli
Method: (§1) The binding specificity of HuCTB006 was evaluated by chemiluminescent enzyme immunoassay (CLEIA).
(§2) HuCTB006 was diluted into 200, 40 and 8 ng/mL and then added to the wells. After 1 hour incubation in 37° C., the plate was washed. The binding of HuCTB006 with immobilized antigens was detected with HRP labeled secondary antibody and a substrate solution.

[2] = target: T2, DcR1 (recombinant human TRAIL R3/TNFRSF10C) (Homo sapiens, UniProt O14798); assay: CLEIA binding specificity; conditions: DcR1-His coated; antibody 200, 40 and 8 ng/mL
T2 construct: His; purchased Novoprotein Science Lot: 0328670
T2 sequence (O14798 26-236): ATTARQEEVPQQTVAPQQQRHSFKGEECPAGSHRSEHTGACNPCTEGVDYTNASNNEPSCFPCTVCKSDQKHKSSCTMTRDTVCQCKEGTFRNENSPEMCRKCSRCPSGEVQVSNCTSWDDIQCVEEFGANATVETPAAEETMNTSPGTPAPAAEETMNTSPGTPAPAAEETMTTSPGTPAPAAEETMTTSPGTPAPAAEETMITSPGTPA
Method: as §1, §2

[3] = target: T3, DcR2 (recombinant human TRAIL R4/TNFRSF10D) (Homo sapiens, UniProt Q9UBN6); assay: CLEIA binding specificity; conditions: DcR2-His coated; antibody 200, 40 and 8 ng/mL
T3 construct: His; purchased Sino Biological Lot: LC06JU1502
T3 sequence (Q9UBN6 56-386): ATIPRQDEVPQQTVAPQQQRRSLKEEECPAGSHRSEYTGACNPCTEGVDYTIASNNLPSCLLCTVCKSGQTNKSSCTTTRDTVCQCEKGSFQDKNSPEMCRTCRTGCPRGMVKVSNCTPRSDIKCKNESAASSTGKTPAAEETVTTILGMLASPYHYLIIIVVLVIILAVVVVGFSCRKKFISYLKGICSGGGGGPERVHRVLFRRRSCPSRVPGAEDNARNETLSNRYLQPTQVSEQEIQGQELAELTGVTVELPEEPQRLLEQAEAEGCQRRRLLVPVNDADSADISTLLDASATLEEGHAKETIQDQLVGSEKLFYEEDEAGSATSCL
Method: as §1, §2

[4] = target: T4, OPG (recombinant human osteroprotegerin/TNFRSF11B) (Homo sapiens, UniProt O00300); assay: CLEIA binding specificity; conditions: OPG-His coated; antibody 200, 40 and 8 ng/mL
T4 construct: His; purchased Wuxi Pharmatech Co. Ltd Lot: 20120717
T4 sequence (O00300 22-401): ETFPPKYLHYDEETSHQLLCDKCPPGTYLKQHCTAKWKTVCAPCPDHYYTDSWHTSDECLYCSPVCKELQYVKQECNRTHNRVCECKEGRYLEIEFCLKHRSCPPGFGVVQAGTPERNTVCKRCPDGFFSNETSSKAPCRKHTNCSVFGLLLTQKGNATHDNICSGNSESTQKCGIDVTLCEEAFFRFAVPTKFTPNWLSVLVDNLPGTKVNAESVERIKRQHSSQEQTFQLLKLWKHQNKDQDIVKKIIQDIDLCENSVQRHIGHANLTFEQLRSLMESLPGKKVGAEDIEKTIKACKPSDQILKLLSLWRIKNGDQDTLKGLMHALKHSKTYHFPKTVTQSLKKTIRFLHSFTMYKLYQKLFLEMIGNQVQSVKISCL
Method: as §1, §2

[5] = system: BXPC3; assay: Cytotoxicity on human tumor cell lines (ATPLite); format: cell-based
Method: (§3) Eighteen human tumor cell lines were treated with 62.5, 125, 250, 500, or 1000 ng/mL HuCTB006 or different concentrations of chemotherapy drugs, which act as positive controls. […] The culture medium for SK-Hep-1, HepG2, HCT116, SW480, WiDr (1×NEAA), MIA-PaCa-2 (2.5% Horse serum) MDA-MB-231 (1 mM NaPyr, 1×MEM-NEAA, 1×MEM VITAMIN) was DMEM. The culture medium for COLO205, BXPC3 (2 mM glutamin, 10 mM HEPES), Panc2.03 (15FBS, 1 mM NaPyr, 1×MEM-NEAA, […], 10 mM HEPES), H2122, OVCAR3 (1 mM NaPyr, 10 ug/ml human insulin, 10 mM HEPES, 2.5 g/L glucose), Molt-4 (HEPES, 2.5 g/l glocose), Jurkat (HEPES, 2.5 g/l glocose) was RPMI-1640, the culture medium for SK-MES-1 was Eagle's MEM, the culture medium for 2-LMP and DY36T2 was IMEM, and the culture medium for SUM102 (5 ug/ml insulin) was F-12K. The cell viability was determined by ATPLite Assay Kit. If the IC50 value was lower than 62.5 ng/mL, the cells were treated with higher concentration of CTB006 in the second round of experiments to determine IC50 value.

[6] = system: COLO205; assay: Cytotoxicity on human tumor cell lines (ATPLite); format: cell-based
Method: as §3

[7] = system: Jurkat; assay: Cytotoxicity on human tumor cell lines (ATPLite); format: cell-based
Method: as §3

[8] = system: MDA-MB-231; assay: Cytotoxicity on human tumor cell lines (ATPLite); format: cell-based
Method: as §3

[9] = system: human colon cancer tumor cells Colo205; assay: Colo205 subcutaneous model; format: in vivo, nude mice; conditions: for Tumor Volume (cm^3) Mean ± SEM / TGI (Calculated using tumor volume): Day 28 after treatment; for Time of tumor volume changed significantly: days after first treatment; for Tumor weight (g) Mean ± SEM / TGI (Calculated using tumor weight): end of experiment
Method: (§4) Tumor cells (i.e., MIA-PaCa-2, WiDr, H2122, colo205) were inoculated in nude mice's flank at 5×10^6 cells per mouse. The mice were grouped when the average volume of tumors reached about 100˜200 mm^3. “QW”=weekly dose. “Q3d”=dosed every third day. “BiW”=biweekly.
(§5) The bodyweight and major/minor axis of the mice were measured twice a week, and the tumor volumes were calculated using the formula: Tumor volume=1/2×major axis[…]. […] “T” represents average tumor volume of the experimental group (cm^3), and “C” represents average tumor volume of the control group (cm^3). The animals were monitored at all times. The bodyweight and major/minor axis or mice were measured twice a week.
(§6) Tumor volumes were represented with average ±standard error. […] P<0.05 represents significant difference.

[10] = system: human colon cancer tumor cells Widr; assay: WiDr subcutaneous model; format: in vivo, nude mice; conditions: for Tumor Volume (cm^3) Mean ± SEM / TGI (Calculated using tumor volume): Day 27 after treatment; for TGI (Calculated using tumor volume): listed as HuTB006; for Tumor weight (g) Mean ± SEM: end of experiment
Method: as §4, §5, §6

[11] = system: human lung cancer tumor cells H2122; assay: H2122 subcutaneous model; conditions: for Tumor Volume (cm^3) Mean ± SEM: Day 38 after treatment; for Tumor weight (g) Mean ± SEM: end of experiment
Method: (§7) The bodyweight and major/minor axis of the mice were measured twice a week, and the tumor volumes were calculated using the formula: Tumor volume=1/2×major axis×minor axis. […] “T” represents average tumor volume of the experimental group (cm^3), and “C” represents average tumor volume of the control group (cm^3). The animals were monitored at all times. The bodyweight and major/minor axis or mice were measured twice a week. When the experiments were concluded, mice were sacrificed and tumors were extracted and weighted.
(§8) Tumor volumes were represented with average ±standard error. Data analysis was done using Spss16.0, One-Way ANOVA, LSD (homogeneity of variance) or Dunnett T3 (non-homogeneity of variance). […] P<0.05 represents significant difference.

[12] = system: human pancreatic cancer tumor cells MIA-PaCa-2; assay: MIA-PaCa-2 subcutaneous model; conditions: for Tumor Volume (cm^3) Mean ± SEM: 34 days of treatment; for Time of tumor volume changed significantly: days after first treatment; for Tumor weight (g) Mean ± SEM: end of experiment; for bodyweights: MIA-PaCa-2 model, over the treatment time
Method: as §7, §8

[13] = HuCTB006 0.6 mg/kg i.v., 0.6 mg/kg
[14] = HuCTB006 1.8 mg/kg i.v., 1.8 mg/kg
[15] = HuCTB006 5.4 mg/kg i.v., 5.4 mg/kg

HuCTB006: Monospecific humanized chimeric monoclonal antibody directed to TRAIL-R2 receptor; heavy chain SEQ ID NO: 16, light chain SEQ ID NO: 14
cross-reaction with coated antigen (CLEIA) [1]: no cross-reaction
cross-reaction with coated antigen (CLEIA) [2]: no cross-reaction
cross-reaction with coated antigen (CLEIA) [3]: no cross-reaction
cross-reaction with coated antigen (CLEIA) [4]: no cross-reaction
IC50 [5]: ~0.01 µg/mL
IC50 [6]: ~0.01 µg/mL
IC50 [7]: ~0.01 µg/mL
IC50 [8]: ~0.01 µg/mL
Tumor Volume (cm^3) Mean ± SEM ([9]; HuCTB006 0.2 mg/kg i.v.): 1.24 ± 0.20 cm^3
Time of tumor volume changed significantly ([9]; HuCTB006 0.2 mg/kg i.v.): 10 days
Tumor weight (g) Mean ± SEM ([9]; HuCTB006 0.2 mg/kg i.v.): 0.84 ± 0.14 g
TGI (Calculated using tumor volume) ([9]; HuCTB006 0.6 mg/kg i.v.): 84.78%
Tumor Volume (cm^3) Mean ± SEM ([9]; HuCTB006 0.6 mg/kg i.v.): 0.29 ± 0.13 cm^3
TGI (Calculated using tumor volume) [9, 13]: 84.78%*
TGI (Calculated using tumor weight) ([9]; HuCTB006 0.6 mg/kg i.v.): 84.07%
Tumor weight (g) Mean ± SEM ([9]; HuCTB006 0.6 mg/kg i.v.): 0.20 ± 0.10 g
TGI (Calculated using tumor weight) [9, 13]: 84.07%*
TGI (Calculated using tumor volume) ([9]; HuCTB006 1.8 mg/kg i.v.): 80.07%
Tumor Volume (cm^3) Mean ± SEM ([9]; HuCTB006 1.8 mg/kg i.v.): 0.38 ± 0.16 cm^3
TGI (Calculated using tumor volume) [9, 14]: 80.07%*
TGI (Calculated using tumor weight) ([9]; HuCTB006 1.8 mg/kg i.v.): 81.78%
Tumor weight (g) Mean ± SEM ([9]; HuCTB006 1.8 mg/kg i.v.): 0.23 ± 0.12 g
TGI (Calculated using tumor weight) [9, 14]: 81.78%*
TGI (Calculated using tumor volume) ([9]; HuCTB006 5.4 mg/kg i.v.): 85.24%
Tumor Volume (cm^3) Mean ± SEM ([9]; HuCTB006 5.4 mg/kg i.v.): 0.28 ± 0.10 cm^3
TGI (Calculated using tumor volume) [9, 15]: 85.24%*
Time of tumor volume changed significantly ([9]; HuCTB006 5.4 mg/kg i.v.): 7~10^2 days
TGI (Calculated using tumor weight) ([9]; HuCTB006 5.4 mg/kg i.v.): 88.15%
Tumor weight (g) Mean ± SEM ([9]; HuCTB006 5.4 mg/kg i.v.): 0.15 ± 0.07 g
TGI (Calculated using tumor weight) [9, 15]: 88.15%*
Tumor Volume (cm^3) Mean ± SEM ([10]; HuCTB006 0.07 mg/kg i.v.): 1.76 ± 0.18 cm^3
TGI (Calculated using tumor volume) ([10]; HuCTB006 0.07 mg/kg i.v.): 6.61%^1
Tumor weight (g) Mean ± SEM ([10]; HuCTB006 0.07 mg/kg i.v.): 1.29 ± 0.18 g
Tumor Volume (cm^3) Mean ± SEM ([10]; HuCTB006 0.22 mg/kg i.v.): 1.54 ± 0.18 cm^3
TGI (Calculated using tumor volume) ([10]; HuCTB006 0.22 mg/kg i.v.): 18.71%^ac
Tumor weight (g) Mean ± SEM ([10]; HuCTB006 0.22 mg/kg i.v.): 1.16 ± 0.13 g
Tumor Volume (cm^3) Mean ± SEM ([10]; HuCTB006 0.67 mg/kg i.v.): 0.96 ± 0.10 cm^3
Tumor weight (g) Mean ± SEM ([10]; HuCTB006 0.67 mg/kg i.v.): 0.68 ± 0.08 g
Tumor Volume (cm^3) Mean ± SEM ([10]; HuCTB006 2 mg/kg i.v.): 0.80 ± 0.11 cm^3
Tumor weight (g) Mean ± SEM ([10]; HuCTB006 2 mg/kg i.v.): 0.53 ± 0.08 g
Tumor Volume (cm^3) Mean ± SEM ([11]; HuCTB006 0.2 mg/kg i.v.): 1.85 ± 0.15 cm^3
Tumor weight (g) Mean ± SEM ([11]; HuCTB006 0.2 mg/kg i.v.): 1.54 ± 0.09 g
Tumor Volume (cm^3) Mean ± SEM ([11]; HuCTB006 0.6 mg/kg i.v.): 1.02 ± 0.31 cm^3
Tumor weight (g) Mean ± SEM ([11]; HuCTB006 0.6 mg/kg i.v.): 0.89 ± 0.29 g
Tumor Volume (cm^3) Mean ± SEM ([11]; HuCTB006 1.8 mg/kg i.v.): 0.16 ± 0.16 cm^3
Tumor weight (g) Mean ± SEM ([11]; HuCTB006 1.8 mg/kg i.v.): 0.12 ± 0.12 g
Tumor Volume (cm^3) Mean ± SEM ([11]; HuCTB006 5.4 mg/kg i.v.): 0.18 ± 0.18 cm^3
Tumor weight (g) Mean ± SEM ([11]; HuCTB006 5.4 mg/kg i.v.): 0.19 ± 0.18 g
Tumor Volume (cm^3) Mean ± SEM ([12]; HuCTB006 0.2 mg/kg i.v.): 1.76 ± 0.15 cm^3
Time of tumor volume changed significantly ([12]; HuCTB006 0.2 mg/kg i.v.): 13 days
Tumor weight (g) Mean ± SEM ([12]; HuCTB006 0.2 mg/kg i.v.): 0.79 ± 0.07 g
Tumor Volume (cm^3) Mean ± SEM ([12]; HuCTB006 0.6 mg/kg i.v.): 1.27 ± 0.43 cm^3
Tumor weight (g) Mean ± SEM ([12]; HuCTB006 0.6 mg/kg i.v.): 0.54 ± 0.21 g
Tumor Volume (cm^3) Mean ± SEM ([12]; HuCTB006 1 mg/kg i.v.): 0.88 ± 0.35 cm^3
Tumor weight (g) Mean ± SEM ([12]; HuCTB006 1 mg/kg i.v.): 0.37 ± 0.19 g
Tumor Volume (cm^3) Mean ± SEM ([12]; HuCTB006 10 mg/kg i.v.): 0.76 ± 0.22 cm^3
Time of tumor volume changed significantly ([12]; HuCTB006 10 mg/kg i.v.): 7^2 days
Tumor weight (g) Mean ± SEM ([12]; HuCTB006 10 mg/kg i.v.): 0.19 ± 0.08 g
bodyweights [12]: slow increase

Nc1ccn([C@@H]2O[C@H](CO)[C@@H](O)C2(F)F)c(=O)n1 [Gemcitabine, reference compound]
Tumor Volume (cm^3) Mean ± SEM ([12]; Gemcitabine 60 mg/kg i.p.): 1.60 ± 0.11 cm^3
bodyweights [12]: decreased significantly by the third dosing
tumor regression ([12]; first experiment): not found
tumor regression ([12]; repeated experiment): not found
